Converted amounts (≈) assume the structure as drawn. The source made the active and inactive calls. No cut-off for these calls is given here.
Assays:
[1] = target: Amyloid-beta precursor protein (Homo sapiens) (UniProt P05067); assay: Inhibition of amyloid beta (unknown origin) aggregation at 10 uM incubated for 20 hrs by Tht-based fluorescence spectroscopy assay relative to control
[2] = Cytotoxicity against rat PC12 cells measured for 24 hrs by WST-assay; assay type: toxicity, cell-based, PC-12
[3] = Aqueous solubility of compound by shake flask method; assay type: physicochemical; conditions: water
[4] = target: Amyloid-beta precursor protein (Homo sapiens) (UniProt P05067); assay: Inhibition of amyloid beta (unknown origin) aggregation at 1 uM incubated for 20 hrs by Tht-based fluorescence spectroscopy assay relative to control
[5] = target: Amyloid-beta precursor protein (Homo sapiens) (UniProt P05067); assay: Inhibition of amyloid beta (unknown origin) aggregation assessed as aggregate diameter by […] analysis
[6] = target: Amyloid-beta precursor protein (Homo sapiens) (UniProt P05067); assay: Inhibition of amyloid beta (unknown origin) aggregation assessed as reduction in rod like structure by […] analysis
[7] = target: Amyloid-beta precursor protein (Homo sapiens) (UniProt P05067); assay: Inhibition of amyloid beta (unknown origin) aggregation assessed as reduction in beta-sheet formation by CD spectroscopy analysis
[8] = target: Amyloid-beta precursor protein (Homo sapiens) (UniProt P05067); assay: Inhibition of amyloid beta (unknown origin) aggregation assessed as change in aggregated monomers structure measured for 10 hrs by Tht-based fluorescence spectroscopy assay

Amyloid-beta precursor protein (Homo sapiens), sequence (P05067 whole entry): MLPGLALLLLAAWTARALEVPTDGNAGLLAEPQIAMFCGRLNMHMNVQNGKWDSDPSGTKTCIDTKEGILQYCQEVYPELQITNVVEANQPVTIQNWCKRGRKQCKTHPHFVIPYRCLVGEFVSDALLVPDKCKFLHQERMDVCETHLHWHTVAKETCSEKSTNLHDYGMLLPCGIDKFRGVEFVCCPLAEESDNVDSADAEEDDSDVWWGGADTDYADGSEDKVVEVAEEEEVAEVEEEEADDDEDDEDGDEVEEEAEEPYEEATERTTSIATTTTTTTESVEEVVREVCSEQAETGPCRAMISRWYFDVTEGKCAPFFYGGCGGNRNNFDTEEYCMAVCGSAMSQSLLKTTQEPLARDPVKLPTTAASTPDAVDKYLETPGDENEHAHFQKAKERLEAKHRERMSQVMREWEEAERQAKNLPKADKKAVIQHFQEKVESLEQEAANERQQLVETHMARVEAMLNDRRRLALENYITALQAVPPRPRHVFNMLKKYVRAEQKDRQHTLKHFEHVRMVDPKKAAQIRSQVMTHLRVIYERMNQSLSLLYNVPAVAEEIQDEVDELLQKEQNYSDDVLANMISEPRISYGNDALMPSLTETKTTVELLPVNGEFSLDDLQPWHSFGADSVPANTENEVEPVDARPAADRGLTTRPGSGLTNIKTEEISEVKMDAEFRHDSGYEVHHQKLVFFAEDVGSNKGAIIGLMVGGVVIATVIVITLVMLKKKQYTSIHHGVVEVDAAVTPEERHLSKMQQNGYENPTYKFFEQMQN

| Compound | inhibition [1] [%] | solubility thermodynamic [3] [µM] | inhibition [4] [%] | Activity [5] [nm] | inhibition [6] | inhibition [7] | inhibition [8] | CC50 at 24 h [2] [µM] |
| --- | --- | --- | --- | --- | --- | --- | --- | --- |
| O=C(N[C@H](CO)Cc1ccc(O)c(O)c1)c1cc(O)cc(O)c1 | 22 | 1500 (≈ 479 µg/mL) | 0 |  |  |  |  | > 150 |
| O=C(N[C@H](CO)Cc1ccc(O)c(O)c1)c1ccc(O)cc1 | 20 | 1600 (≈ 485 µg/mL) | 0 |  |  |  |  | > 150 |
| O=C(Cc1cccc(O)c1O)NCCc1ccc(O)c(O)c1 | 70 | 2000 (≈ 607 µg/mL) | 0 |  |  |  |  | > 150 |
| O=C(Cc1cc(O)cc(O)c1)NCCc1ccc(O)c(O)c1 | 25 | 1800 (≈ 546 µg/mL) | 0 |  |  |  |  | > 150 |
| O=C(Cc1ccc(O)cc1)NCCc1ccc(O)c(O)c1 | 80 | 2000 (≈ 575 µg/mL) | 18 |  |  |  |  | > 150 |
| O=C(/C=C/c1ccc(O)c(O)c1)N[C@@H](Cc1ccc(O)c(O)c1)C(=O)O | 86 | 1410 (≈ 507 µg/mL) |  |  |  |  |  | > 150 |
| N[C@@H](Cc1ccc(O)c(O)c1)C(=O)O | 31 |  | 0 |  |  |  |  |  |
| O=C1C=C(c2ccc(O)c(O)c2)OC(c2cc(O)ccc2O)C1 (centres undefined) |  | 2340 (≈ 735 µg/mL) | 76 |  |  |  |  |  |
| O=C(/C=C/c1ccccc1)NCCc1ccc(O)c(O)c1 | 92 | 750 (≈ 212 µg/mL) | 40 |  |  |  |  | > 150 |
| O=C(Cc1cc(O)ccc1O)NCCc1ccc(O)c(O)c1 | 80 | 800 (≈ 243 µg/mL) | 19 |  |  |  |  | > 150 |

The next lines start with results.

| inhibition [1] [%] | solubility thermodynamic [3] [µM] | inhibition [4] [%] | Activity [5] [nm] | inhibition [6] | inhibition [7] | inhibition [8] | Compound | CC50 at 24 h [2] [µM] |
| --- | --- | --- | --- | --- | --- | --- | --- | --- |
| 30 | 1300 (≈ 353 µg/mL) | 0 |  |  |  |  | O=C(Cc1ccccc1)NCCc1ccc(O)c(O)c1 | > 150 |
| 90 | 1200 (≈ 383 µg/mL) | 35 |  |  |  |  | O=C(N[C@H](CO)Cc1ccc(O)c(O)c1)c1ccc(O)c(O)c1 | > 150 |
| 85 | 3000 (≈ 1010 µg/mL) | 16 |  |  |  |  | O=C(N[C@H](CO)Cc1ccc(O)c(O)c1)c1cc(O)c(O)c(O)c1 | 80 |
| 100 | 1500 (≈ 473 µg/mL) | 55 | 74 | Active | inactive | Active | O=C(/C=C/c1ccc(O)c(O)c1)NCCc1ccc(O)c(O)c1 | > 150 |
| 95 | 377 (≈ 137 µg/mL) | 30 |  |  |  |  | COC(=O)[C@H](Cc1ccc(O)c(O)c1)NC(=O)c1cc(O)c(O)c(O)c1 | 150 |
| 92 | 2500 (≈ 758 µg/mL) | 29 |  |  |  |  | O=C(Cc1ccc(O)c(O)c1)NCCc1ccc(O)c(O)c1 | > 150 |
| 90 | 3200 (≈ 1020 µg/mL) | 20 |  |  |  |  | O=C(Cc1cc(O)c(O)c(O)c1)NCCc1ccc(O)c(O)c1 | 80 |
| 80 | 1300 (≈ 415 µg/mL) | 0 |  |  |  |  | O=C(N[C@H](CO)Cc1ccc(O)c(O)c1)c1cccc(O)c1O | > 150 |
| 70 | 2500 (≈ 798 µg/mL) | 28 |  |  |  |  | O=C(N[C@H](CO)Cc1ccc(O)c(O)c1)c1cc(O)ccc1O | > 150 |
| 70 | 700 (≈ 201 µg/mL) | 0 |  |  |  |  | O=C(N[C@H](CO)Cc1ccc(O)c(O)c1)c1ccccc1 | > 150 |
